Patent publication US8513301B2, “Kind of piperphentonamine hydrochloride lyophilized powder for injection and preparation and use thereof” (Guangzhou Zhongwei Biotechnology Ltd., priority 2007, dated 2013)

Assays:
[1] = target: T1, cTnC isolated from cattle cardiac muscle (Bos taurus, UniProt P63315); assay: Affinity of Ca^2+ to cTnC by fluorescent probe dansyl chloride labeling; assay type: binding; details: for Influence on the affinity curve of cTnC to Ca^2+: 50 μmol/L; for Effect on the cTnC-Ca^2+ affinity curve: 55 μmol/L (FIG. 4)
T1 construct: cTnC isolated from cattle cardiac muscle; from tissue; host or cells: cattle cardiac muscle
Description: The effect of PPTA-I on the affinity of Ca^2+ to cTnC isolated from cattle cardiac muscle was studied by fluorescent probe dansyl chloride labeling to discuss the calcium sensitization mechanisms of piperphentonamine hydrochloride, and compared the results to the already known calcium sensitizers MCI-154 and sulmazole (Sul).

[2] = system: cat heart failure model induced by verapamil; assay: Cardiac hemodynamic parameters in cat heart failure model induced by verapamil, intravenous administration; assay type: in vivo; details: 0.1 mg/kg; for +dP/dt max, Change, % / Cardiac contractility, Change % / HR, Change % / LVEDP, Change, % / LVSP, Change, % / MAP, Change % / −dP/dt max, Change, %: vs. baseline
Method: To study the therapeutic effect of the novel cardiotonic and vasodilator PPTA-I on heart failure, the cardiac hemodynamic parameters were determined by a polygraph in cat heart failure model induced by verapamil.

[3] = system: myocardial ischemia-reperfusion injury in cats; assay: Myocardial ischemia-reperfusion injury in cats in vivo (coronary artery arrest 30 min, reperfusion 60 min); set-up: species or system cat; details: 1.3 mg/kg
Method: In order to further evaluate the protective effect of PPTA on myocardium injured by ischemia-reperfusion, a pathological model of myocardial ischemia-reperfusion injury in cats in vivo was established by arrest the coronary artery for 30 min, then reperfusion for 60 min, studying the effects on blood biochemistry, myocardium ultrastructure, etc.

[4] = conventionally known; cited from earlier work
[5] = Solubility and stability of piperphentonamine hydrochloride in water for injection; assay type: physicochemical
Description: Piperphentonamine hydrochloride with the molecular formula C21H23NO4.HCl has a molecular weight of […], batch No. 2001803, provided by Guangzhou Zhongwei Biotechnology Ltd Company. Its preparation method is described in Chinese patent No. 02125318.8. […] In order to achieve the lyophilized powder for injection with good redissolving ability and stability, piperphentonamine hydrochloride and excipient need to be dissolved in water for injection with pH 1.5 to 5.5 and then lyophilized, especially preferred water for injection with pH 2 to 3.

[6] = treated by sonication and heating

## O=C1CCC(c2ccc(Nc3ccncc3)cc2)=NN1 [MCI-154]
[1]
  Influence on the affinity curve of cTnC to Ca^2+: no significant influence
  Effect on the cTnC-Ca^2+ affinity curve: no significant effect

## Cc1[nH]c(=O)c(C#N)cc1-c1ccncc1 [Milrinone]
[2]
  +dP/dt max increased by at most: 61±26%
  Effect on HRs: did not affect
  Effect on LVSP, LVEDP and −dP/dt max: without changing
  MAP decreased by: 10%
  Period of +dP/dt max increase: over 20 minutes
  Period of the effect on MAP and cardiac contractility: 5 min
[2]; 2 min
  +dP/dt max, Change, %: 18 ± 23 %
  Cardiac contractility, Change %: 38 ± 32 # %
  HR, Change %: 0 ± 5%
  LVEDP, Change, %: 1 ± 2%
  LVSP, Change, %: 4 ± 11%
  MAP, Change %: −4 ± 4 %
  −dP/dt max, Change, %: 0 ± 23%
[2]; 5 min
  +dP/dt max, Change, %: 52 ± 24 ### %
  Cardiac contractility, Change %: 92 ± 80 # %
  HR, Change %: 2 ± 15%
  LVEDP, Change, %: 5 ± 16%
  LVSP, Change, %: 5 ± 15%
  MAP, Change %: −10 ± 8 # %
  −dP/dt max, Change, %: 3 ± 19%
[2]; 10 min
  +dP/dt max, Change, %: 61 ± 26 ### %
  Cardiac contractility, Change %: 71 ± 78 %
  HR, Change %: 2 ± 16%
  LVEDP, Change, %: −1 ± 5%
  LVSP, Change, %: 6 ± 17%
  MAP, Change %: −10 ± 6 ## %
  −dP/dt max, Change, %: 11 ± 20%
[2]; 15 min
  +dP/dt max, Change, %: 54 ± 33 ## %
  Cardiac contractility, Change %: 58 ± 74 %
  HR, Change %: 3 ± 16%
  LVEDP, Change, %: −7 ± 16%
  LVSP, Change, %: 3 ± 18%
  MAP, Change %: −10 ± 8 # %
  −dP/dt max, Change, %: 8 ± 23%
[2]; 20 min
  +dP/dt max, Change, %: 61 ± 45 # %
  Cardiac contractility, Change %: 61 ± 69 %
  HR, Change %: −13 ± 37%
  LVEDP, Change, %: 2 ± 11%
  LVSP, Change, %: 4 ± 22%
  MAP, Change %: −8 ± 12%
  −dP/dt max, Change, %: −4 ± 22%

## COc1cc([S+](C)[O-])ccc1-c1nc2ncccc2[nH]1 (stereo not drawn) [Sul, sulmazole]
[1]
  Influence on the affinity curve of cTnC to Ca^2+: no significant influence
  Effect on the cTnC-Ca^2+ affinity curve: no significant effect

## COc1ccc(CCN(C)CCCC(C#N)(c2ccc(OC)c(OC)c2)C(C)C)cc1OC (stereo not drawn) [verapamil]
[3]; injury control 2.5 ± 0.55
  Score of myocardium pathological change: 1.3 ± 0.18
[3]; serum, injury control 2.3 ± 0.62
  Content of cTnI: 1.4 ± 0.21
[3]; serum, injury control 86 ± 17
  Content of MDA: 65 ± 12 nmol/L
[3]; serum, injury control 385 ± 75
  CPK activity: 271 ± 80

## piperphentonamine hydrochloride
[4]
  Solubility in water: insoluble or poor soluble in water
[1]; 15 μmol/L
  Shift of cTnC-Ca^2+ affinity curve: slightly shifted to the left without statistical significance
[1]; 35 μmol/L
  Shift of cTnC-Ca^2+ affinity curve: shifted to the left with statistical significance
[1]; 55 μmol/L (FIG. 3)
  Shift of cTnC-Ca^2+ affinity curve to the left compared with the control curve: 0.2 pCa
[5]; easy to degrade and turn yellow
  Stability in water for injection: not stable
[5]; [6]
  Solubility in water for injection with pH 1.5 to 5.5: easy to be dissolved
  pH of water for injection with the best solubility and stability: 2 to 3
[5]; untreated
  Solubility in water for injection: difficult to be dissolved
